From patent publication US20100267561A1, “HERBICIDAL PYRIDAZINONE DERIVATIVES” (priority 2007, published 2010)

Key:
Assay type in all cases: in vivo
[1] = tested on: large crabgrass (Digitaria sanguinalis); test: Test E pre-/postemergence plant response; conditions: scale 0 to 100
How it was run: (§1)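 Steps: sow seeds; apply compound preemergence in a non-phytotoxic solvent/surfactant formulation; in parallel, spray the same formulation postemergence on 1- to 4-leaf plants (2–18 cm); hold 14–21 days in a greenhouse; rate visually vs controls, 0 = no effect, 100 = complete control.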

[2] = tested on: common groundsel (Senecio vulgaris); test: Test E pre-/postemergence plant response; conditions: scale 0 to 100
How it was run: as §1

[3] = tested on: common mallow (Malva sylvestris); test: Test E pre-/postemergence plant response; conditions: scale 0 to 100
How it was run: as §1

[4] = tested on: green foxtail (Setaria viridis); test: Test E pre-/postemergence plant response; conditions: scale 0 to 100
How it was run: as §1

[5] = tested on: guineagrass (Panicum maximum); test: Test E pre-/postemergence plant response; conditions: scale 0 to 100
How it was run: as §1

[6] = tested on: goosegrass (Eleusine indica); test: Test E pre-/postemergence plant response; conditions: scale 0 to 100
How it was run: as §1

[7] = tested on: barnyardgrass (Echinochloa crus-galli); test: Test E pre-/postemergence plant response; conditions: scale 0 to 100
How it was run: as §1

[8] = tested on: annual bluegrass (Poa annua); test: Test E pre-/postemergence plant response; conditions: scale 0 to 100
How it was run: as §1

[9] = tested on: southern (S.) sandbur (Cenchrus echinatus); test: Test E pre-/postemergence plant response; conditions: scale 0 to 100
How it was run: as §1

[10] = tested on: purple nutsedge (Cyperus rotundus); test: Test E pre-/postemergence plant response; conditions: scale 0 to 100
How it was run: as §1

[11] = tested on: pitted morningglory (Ipomoea lacunosa); test: Test E pre-/postemergence plant response; conditions: scale 0 to 100
How it was run: as §1

canola (Brassica rapa) = test: Test C pre-/postemergence plant response; conditions: scale 0 to 100, 0 no effect, 100 complete control
How it was run: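 Both preemergence (to planted seed) and postemergence (to plants 2–18 cm high, 1- to 4-leaf) applications used test chemicals in a non-phytotoxic solvent mixture containing surfactant. Evaluation: visual comparison with controls after 15 to 25 days; 0 means no effect, 100 complete control.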

CCOC(=O)Oc1cnn(C)c(=O)c1-n1nc(-c2ccc(Cl)cc2)cc1C [Compound 53]
Plant response rating, Crabgrass, Large ([1]; 16 g ai/ha, Preemergence): 40 | Plant response rating, Crabgrass, Large ([1]; 31 g ai/ha, Preemergence): 95 | Plant response rating, Crabgrass, Large ([1]; 62 g ai/ha, Preemergence): 100 | Plant response rating, Crabgrass, Large ([1]; Postemergence, 8 g ai/ha): 35 | Plant response rating, Crabgrass, Large ([1]; Postemergence, 16 g ai/ha): 95 | Plant response rating, Crabgrass, Large ([1]; Postemergence, 31 g ai/ha): 95 | Plant response rating, Crabgrass, Large ([1]; Postemergence, 62 g ai/ha): 100 | Plant response rating, Groundsel ([2]; 16 g ai/ha, Preemergence): 0 | Plant response rating, Groundsel ([2]; 31 g ai/ha, Preemergence): 0 | Plant response rating, Groundsel ([2]; 62 g ai/ha, Preemergence): 0 | Plant response rating, Groundsel ([2]; Postemergence, 8 g ai/ha): 0 | Plant response rating, Groundsel ([2]; Postemergence, 16 g ai/ha): 0 | Plant response rating, Groundsel ([2]; Postemergence, 31 g ai/ha): 0 | Plant response rating, Groundsel ([2]; Postemergence, 62 g ai/ha): 0 | Plant response rating, Mallow ([3]; 62 g ai/ha, Preemergence): 0 | Plant response rating, Mallow ([3]; Postemergence, 8 g ai/ha): 0 | Plant response rating, Mallow ([3]; Postemergence, 16 g ai/ha): 0 | Plant response rating, Mallow ([3]; Postemergence, 31 g ai/ha): 0 | Plant response rating, Mallow ([3]; Postemergence, 62 g ai/ha): 0 | Plant response rating, Foxtail, Green ([4]; 16 g ai/ha, Preemergence): 20 | Plant response rating, Foxtail, Green ([4]; 31 g ai/ha, Preemergence): 65 | Plant response rating, Foxtail, Green ([4]; 62 g ai/ha, Preemergence): 100 | Plant response rating, Foxtail, Green ([4]; Postemergence, 8 g ai/ha): 70 | Plant response rating, Foxtail, Green ([4]; Postemergence, 16 g ai/ha): 80 | Plant response rating, Foxtail, Green ([4]; Postemergence, 31 g ai/ha): 90 | Plant response rating, Foxtail, Green ([4]; Postemergence, 62 g ai/ha): 100 | Plant response rating, Guineagrass ([5]; 16 g ai/ha, Preemergence): 98 | Plant response rating, Guineagrass ([5]; 31 g ai/ha, Preemergence): 100 | Plant response rating, Guineagrass ([5]; 62 g ai/ha, Preemergence): 100 | Plant response rating, Guineagrass ([5]; Postemergence, 8 g ai/ha): 90 | Plant response rating, Guineagrass ([5]; Postemergence, 16 g ai/ha): 98 | Plant response rating, Guineagrass ([5]; Postemergence, 31 g ai/ha): 100 | Plant response rating, Guineagrass ([5]; Postemergence, 62 g ai/ha): 100 | Plant response rating, Goosegrass ([6]; 16 g ai/ha, Preemergence): 80 | Plant response rating, Goosegrass ([6]; 31 g ai/ha, Preemergence): 100 | Plant response rating, Goosegrass ([6]; 62 g ai/ha, Preemergence): 100 | Plant response rating, Goosegrass ([6]; Postemergence, 8 g ai/ha): 20 | Plant response rating, Goosegrass ([6]; Postemergence, 16 g ai/ha): 65 | Plant response rating, Goosegrass ([6]; Postemergence, 31 g ai/ha): 80 | Plant response rating, Goosegrass ([6]; Postemergence, 62 g ai/ha): 95 | Plant response rating, Barnyardgrass ([7]; 16 g ai/ha, Preemergence): 95 | Plant response rating, Barnyardgrass ([7]; 31 g ai/ha, Preemergence): 100 | Plant response rating, Barnyardgrass ([7]; 62 g ai/ha, Preemergence): 100 | Plant response rating, Barnyardgrass ([7]; Postemergence, 8 g ai/ha): 100 | Plant response rating, Barnyardgrass ([7]; Postemergence, 16 g ai/ha): 100 | Plant response rating, Barnyardgrass ([7]; Postemergence, 31 g ai/ha): 100 | Plant response rating, Barnyardgrass ([7]; Postemergence, 62 g ai/ha): 100 | Plant response rating, Bluegrass ([8]; 16 g ai/ha, Preemergence): 0 | Plant response rating, Bluegrass ([8]; 31 g ai/ha, Preemergence): 0 | Plant response rating, Bluegrass ([8]; 62 g ai/ha, Preemergence): 60 | Plant response rating, Bluegrass ([8]; Postemergence, 8 g ai/ha): 0 | Plant response rating, Bluegrass ([8]; Postemergence, 16 g ai/ha): 0 | Plant response rating, Bluegrass ([8]; Postemergence, 31 g ai/ha): 0 | Plant response rating, Bluegrass ([8]; Postemergence, 62 g ai/ha): 0 | Plant response rating, Sandbur, S. ([9]; 16 g ai/ha, Preemergence): 30 | Plant response rating, Sandbur, S. ([9]; 31 g ai/ha, Preemergence): 100 | Plant response rating, Sandbur, S. ([9]; 62 g ai/ha, Preemergence): 100 | Plant response rating, Sandbur, S. ([9]; Postemergence, 8 g ai/ha): 65 | Plant response rating, Sandbur, S. ([9]; Postemergence, 16 g ai/ha): 80 | Plant response rating, Sandbur, S. ([9]; Postemergence, 31 g ai/ha): 95 | Plant response rating, Sandbur, S. ([9]; Postemergence, 62 g ai/ha): 100 | Plant response rating, Nutsedge, Purple ([10]; 16 g ai/ha, Preemergence): 0 | Plant response rating, Nutsedge, Purple ([10]; 31 g ai/ha, Preemergence): 35 | Plant response rating, Nutsedge, Purple ([10]; 62 g ai/ha, Preemergence): 98 | Plant response rating, Nutsedge, Purple ([10]; Postemergence, 8 g ai/ha): 0 | Plant response rating, Nutsedge, Purple ([10]; Postemergence, 16 g ai/ha): 0 | Plant response rating, Nutsedge, Purple ([10]; Postemergence, 31 g ai/ha): 0 | Plant response rating, Nutsedge, Purple ([10]; Postemergence, 62 g ai/ha): 0 | Plant response rating, Morningglory ([11]; 16 g ai/ha, Preemergence): 0 | Plant response rating, Morningglory ([11]; 31 g ai/ha, Preemergence): 0 | Plant response rating, Morningglory ([11]; 62 g ai/ha, Preemergence): 35 | Plant response rating, Morningglory ([11]; Postemergence, 8 g ai/ha): 0 | Plant response rating, Morningglory ([11]; Postemergence, 16 g ai/ha): 0 | Plant response rating, Morningglory ([11]; Postemergence, 31 g ai/ha): 0 | Plant response rating, Morningglory ([11]; Postemergence, 62 g ai/ha): 30 | Plant response rating, Canola (canola (Brassica rapa); Postemergence, 8 g ai/ha): 0 | Plant response rating, Canola (canola (Brassica rapa); Postemergence, 16 g ai/ha): 0 | Plant response rating, Canola (canola (Brassica rapa); Postemergence, 31 g ai/ha): 0 | Plant response rating, Canola (canola (Brassica rapa); Postemergence, 62 g ai/ha): 0 | Plant response rating, Canola (canola (Brassica rapa); Preemergence, 62 g ai/ha): 0
